Assay results published in PubChem BioAssay (NCI).
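All cell lines were grown in 96-well plates and treated with compound for 48 hours. GI50 marks 50% less growth. TGI denotes the concentration required for complete inhibition of growth.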

Key:
Experiment in all cases: NCI-60 cell line screen, 48 h
K-562 leukemia = system: K-562 leukemia
SK-MEL-2 melanoma = system: SK-MEL-2 melanoma
SK-OV-3 ovarian = system: SK-OV-3 ovarian
NCI-H522 lung = system: NCI-H522 lung
IGROV1 ovarian = system: IGROV1 ovarian
NCI-H23 lung = system: NCI-H23 lung
A549 NSCLC = system: A549 NSCLC
A498 renal = system: A498 renal
SNB-19 CNS = system: SNB-19 CNS
COLO 205 colon = system: COLO 205 colon
SF-539 CNS = system: SF-539 CNS
RPMI-8226 leukemia = system: RPMI-8226 leukemia
SNB-75 CNS = system: SNB-75 CNS
MALME-3M melanoma = system: MALME-3M melanoma
MOLT-4 leukemia = system: MOLT-4 leukemia
SK-MEL-5 melanoma = system: SK-MEL-5 melanoma
MDA-MB-231 breast = system: MDA-MB-231 breast
HCT-116 colon = system: HCT-116 colon
T-47D breast = system: T-47D breast
HOP-92 NSCLC = system: HOP-92 NSCLC
HCC-2998 colon = system: HCC-2998 colon
UO-31 renal = system: UO-31 renal
UACC-62 melanoma = system: UACC-62 melanoma
CCRF-CEM leukemia = system: CCRF-CEM leukemia
NCI-H226 lung = system: NCI-H226 lung
SN12C renal = system: SN12C renal
MDA-MB-435 = system: MDA-MB-435
M14 melanoma = system: M14 melanoma
KM12 colon = system: KM12 colon
U251 CNS = system: U251 CNS
OVCAR-5 ovarian = system: OVCAR-5 ovarian
HOP-62 NSCLC = system: HOP-62 NSCLC
UACC-257 melanoma = system: UACC-257 melanoma
EKVX NSCLC = system: EKVX NSCLC
OVCAR-3 ovarian = system: OVCAR-3 ovarian
SF-268 CNS = system: SF-268 CNS
786-0 renal = system: 786-0 renal
HT29 colon = system: HT29 colon
ACHN renal = system: ACHN renal
SW-620 colon = system: SW-620 colon
MCF7 breast = system: MCF7 breast
NCI/ADR-RES ovarian = system: NCI/ADR-RES ovarian
BT-549 breast = system: BT-549 breast
HCT-15 colon = system: HCT-15 colon
CAKI-1 renal = system: CAKI-1 renal
OVCAR-8 ovarian = system: OVCAR-8 ovarian
TK-10 renal = system: TK-10 renal
NCI-H460 lung = system: NCI-H460 lung
SF-295 CNS = system: SF-295 CNS
LOX IMVI melanoma = system: LOX IMVI melanoma
SK-MEL-28 melanoma = system: SK-MEL-28 melanoma
PC-3 prostate = system: PC-3 prostate
HS 578T breast = system: HS 578T breast
RXF 393 renal = system: RXF 393 renal
DU-145 prostate = system: DU-145 prostate
HL-60(TB) leukemia = system: HL-60(TB) leukemia

## CCCc1cc2cc(-n3nc(CC)c4c3CC(C)(C)CC4=O)cc(NC3CCC(O)CC3)c2c(=O)[nH]1 (configuration not stated)
K-562 leukemia
  GI50: 185 nM
  TGI: > 100 µM
SK-MEL-2 melanoma
  GI50: 2270 nM
  TGI: > 100 µM
SK-OV-3 ovarian
  GI50: 409 nM
  TGI: > 100 µM
NCI-H522 lung
  GI50: 1010 nM
  TGI: 11.5 µM
IGROV1 ovarian
  GI50: 831 nM
  TGI: > 100 µM
NCI-H23 lung
  GI50: 127 nM
  TGI: 50.8 µM
A549 NSCLC
  GI50: 1460 nM
  TGI: > 100 µM
A498 renal
  GI50: 2020 nM
  TGI: > 100 µM
SNB-19 CNS
  GI50: 3.02 µM
  TGI: > 100 µM
COLO 205 colon
  GI50: 464 nM
  TGI: > 100 µM
SF-539 CNS
  GI50: 1720 nM
  TGI: 89.3 µM
RPMI-8226 leukemia
  GI50: 1580 nM
  TGI: > 100 µM
SNB-75 CNS
  GI50: 6.22 µM
  TGI: > 100 µM
MALME-3M melanoma
  GI50: 839 nM
  TGI: > 100 µM
MOLT-4 leukemia
  GI50: 503 nM
  TGI: > 100 µM
SK-MEL-5 melanoma
  GI50: 1940 nM
  TGI: > 100 µM
MDA-MB-231 breast
  GI50: 652 nM
  TGI: > 100 µM
HCT-116 colon
  GI50: 193 nM
  TGI: > 100 µM
T-47D breast
  GI50: 2060 nM
  TGI: > 100 µM
HOP-92 NSCLC
  GI50: 1710 nM
  TGI: 8.6 µM
HCC-2998 colon
  GI50: 842 nM
  TGI: > 100 µM
UO-31 renal
  GI50: 568 nM
  TGI: > 100 µM
UACC-62 melanoma
  GI50: 487 nM
  TGI: > 100 µM
CCRF-CEM leukemia
  GI50: 1340 nM
  TGI: > 100 µM
NCI-H226 lung
  GI50: 2620 nM
  TGI: > 100 µM
SN12C renal
  GI50: 365 nM
  TGI: > 100 µM
MDA-MB-435
  GI50: 444 nM
  TGI: > 100 µM
M14 melanoma
  GI50: 572 nM
  TGI: > 100 µM
KM12 colon
  GI50: 758 nM
  TGI: > 100 µM
U251 CNS
  GI50: 3.37 µM
  TGI: > 100 µM
OVCAR-5 ovarian
  GI50: 3.51 µM
  TGI: > 100 µM
HOP-62 NSCLC
  GI50: 836 nM
  TGI: > 100 µM
UACC-257 melanoma
  GI50: 3000 nM
  TGI: > 100 µM
EKVX NSCLC
  GI50: > 100 µM
  TGI: > 100 µM
OVCAR-3 ovarian
  GI50: 4.43 µM
  TGI: > 100 µM
SF-268 CNS
  GI50: 7.29 µM
  TGI: > 100 µM
786-0 renal
  GI50: 2950 nM
  TGI: > 100 µM
HT29 colon
  GI50: 100 nM
  TGI: > 100 µM
ACHN renal
  GI50: 495 nM
  TGI: > 100 µM
SW-620 colon
  GI50: 370 nM
  TGI: > 100 µM
MCF7 breast
  GI50: 289 nM
  TGI: > 100 µM
NCI/ADR-RES ovarian
  GI50: 3.88 µM
  TGI: > 100 µM
BT-549 breast
  GI50: 2300 nM
  TGI: > 100 µM
HCT-15 colon
  GI50: 400 nM
  TGI: > 100 µM
CAKI-1 renal
  GI50: 1130 nM
  TGI: > 100 µM
OVCAR-8 ovarian
  GI50: 2040 nM
  TGI: > 100 µM
TK-10 renal
  GI50: 621 nM
  TGI: > 100 µM
NCI-H460 lung
  GI50: 482 nM
  TGI: > 100 µM
SF-295 CNS
  GI50: 759 nM
  TGI: > 100 µM
LOX IMVI melanoma
  GI50: 198 nM
  TGI: > 100 µM
SK-MEL-28 melanoma
  GI50: 869 nM
  TGI: > 100 µM
PC-3 prostate
  GI50: 1310 nM
  TGI: > 100 µM
HS 578T breast
  GI50: 3.49 µM
  TGI: > 100 µM
RXF 393 renal
  GI50: 408 nM
  TGI: 2410 nM
DU-145 prostate
  GI50: 530 nM
  TGI: > 100 µM
HL-60(TB) leukemia
  GI50: 315 nM
  TGI: > 100 µM
